In article PMC10353390, “Biological and Structural Analyses of New Potent Allosteric Inhibitors of HIV-1 Integrase” (Antimicrobial Agents and Chemotherapy, 2023):

Key:
[1] = system: VSV-G-pseudotyped NL4-3Δenv-luc; test: microbe, parasite or virus in culture; format: cell-based, HIV-1
[2] = Cytotoxicity assay in MT4 cells; format: cell-based; conditions: human, MT4 cells (proliferating human T-cell line), CellTiter-Glo
Excerpt: Growth inhibition was monitored in a proliferating human T-cell line (MT4) with different concentrations of compounds, using the CellTiter-Glo luminescent reagent (Promega), as previously described ([12]).

NL4-3 HIV-1 clone = test: Combination antiviral activity assay (MacSynergy II) in NL4-3-infected MT4 cells; format: cell-based
Excerpt: To this end, we evaluated the activity of BDM-2 in the presence of approved antiretroviral drugs against NL4-3 HIV-1 clone replicating on MT4 cells. Examples of MacSynergy plots obtained for the combinations of BDM-2 with the protease inhibitor lopinavir (LPV) or the INSTI EVG are shown in Fig. 3A and B, respectively. The results indicated no antagonism of ascending concentrations of BDM-2 with the antiviral activity of LPV or EVG and vice versa. Next, we extended these analyses to a panel of 16 FDA-approved antiretroviral drugs, including 3 protease inhibitors, 6 NRTIs, 4 NNRTIs, and 3 INSTIs.
BDM-2, as lead compound representative of the series, was used in these experiments. Combination studies were performed in MT4 cells infected with NL4-3, as previously described ([3]). Multiple concentrations of BDM-2 were tested in checkerboard pattern in the presence and absence of dilutions of 16 representative approved anti-HIV drugs of different classes. Compound combinations were analyzed by calculations to quantify deviation from additivity at the 50% level. Data were analyzed as described by Prichard and Shipman by using the MacSynergy II program ([54]). Synergy volumes in the range of −25 to +25 define additivity; −50 minor antagonism, +50 minor synergy, and up to 100 and >100 moderate and strong synergy, respectively. Combinations of RBV with AZT or ddI were used as controls for antagonism and synergy, respectively.

[3] = system: HIV-1 strains resistant to INSTIs, NRTIs, NNRTIs or PIs; format: cell-based
Procedure, shortened: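 Cell viability (CellTiter-Glo luminescence) served as read-out in MT4 cells at 10^6/mL, infected 2 h at MOI 0.001 in presence of graded compound concentrations. Viruses: resistance-mutation recombinants in NL4-3 backbone plus resistant clinical isolates.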

[4] = molecular target: HIV-1 IN-LEDGF/p75 interaction (Human immunodeficiency virus type 1 group M subtype B, UniProt P12497); test: biochemical
Description: The INLAIs were tested for the ability to inhibit the HIV-1 IN-LEDGF/p75 interaction in a homogeneous time-resolved fluorescence (HTRF) assay. Our assays used either full-length IN and LEDGF/p75 proteins or their respective minimally sufficient interaction domains: the CCD of HIV-1 IN and the IBD of LEDGF/p75 (Table 1).
HTRF-based CCD-IBD interaction, IN-LEDGF/p75 interaction and IN multimerization assays were performed as described previously ([12]).

[5] = molecular target: CCD of HIV-1 IN and IBD of LEDGF/p75 (Human immunodeficiency virus type 1 group M subtype B, UniProt P12497); test: biochemical
[6] = system: recombinant NL4-3 viruses with polymorphisms at IN positions 124 and 125; test: Multiple-round infection of MT4 cells with recombinant NL4-3 viruses polymorphic at IN positions 124 and 125; format: cell-based, HIV-1
Procedure, shortened: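 EC50 fold change relative to wild-type TT NL4-3 was derived from CellTiter-Glo viability of exponentially growing MT4 cells (10^6/mL). Cells were exposed for 2 h, with compounds, to NL4-3 clones bearing one of 15 IN 124/125 variants at MOI 0.001.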

[7] = set-up: method as in ref 20 = [20]; 20 Single ascending dose trial investigating safety, tolerability and pharmacokinetics of BDM-2 in healthy male subjects . https://clinicaltrials.gov/ct2/show/NCT03634085 . Accessed 17 July 2020 .; conditions: single ascending dose, healthy male subjects; cited from earlier work
[8] = system: primary HIV-1 isolates with polymorphisms at IN positions 124 and 125; test: Multiple-round infection of MT4 cells with primary HIV-1 isolates polymorphic at IN positions 124 and 125; format: cell-based; conditions: primary isolate
Procedure, shortened: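 Antiviral potency read as protection of cell viability (CellTiter-Glo luminescence). Infection at MOI 0.001 lasted 2 h with compound present at a range of concentrations, using MT4 cells at 10^6/mL in exponential growth.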

NL4-3 HIV-1 strain = test: Multiple-round infection assay in MT4 cells, NL4-3; format: cell-based; conditions: MT4 cells
[9] = INSTI-resistant, NL4-3 background
[10] = INSTI-resistant, primary patient-derived strain

Cc1ccc(C2CC2)c(-c2ccc3c(c2)CCCO3)c1[C@H](OC(C)(C)C)C(=O)O [BDM-2]
EC50 ratio (single/multiple-round infection) [1]: 161
EC50 ([1]; Human immunodeficiency virus 1, NL43, MT4, read-out: EC50 in single-round infection): 1400 ± 300 nM
CC50 [2]: 69000 ± 8000 nM
interaction with a panel of 16 FDA-approved antiretroviral drugs (NL4-3 HIV-1 clone; 3 protease inhibitors, 6 NRTIs, 4 NNRTIs, 3 INSTIs, MacSynergy): no antagonism
interaction with lopinavir (LPV) (NL4-3 HIV-1 clone; MacSynergy synergy volume): strong synergy (up to 100 and >100 moderate and strong synergy, respectively)
interaction with some of the remaining drugs, including the INSTIs (NL4-3 HIV-1 clone; MacSynergy synergy volume): moderate synergy (up to 100 and >100 moderate and strong synergy, respectively)
Fold change in EC50 relative to NL4-3, E92Q [3, 9]: 1
Fold change in EC50 relative to NL4-3, G140S [3, 9]: 1
Fold change in EC50 relative to NL4-3, G140S/Q148H [3, 9]: 1
Fold change in EC50 relative to NL4-3, N155H [3, 9]: 1
Fold change in EC50 relative to NL4-3, Q148H [3, 9]: 1
Fold change in EC50 relative to NL4-3, Y143R [3, 9]: 1
Fold change in EC50 relative to NL4-3, E92Q/N155H (pat.) [3, 10]: 1
Fold change in EC50 relative to NL4-3, G140S/Q148H (pat.) [3, 10]: 1
Fold change in EC50 relative to NL4-3, T97A/N155H (pat.) [3, 10]: 1
Fold change in EC50 relative to NL4-3, NLAY351717 ([3]; NRTI-resistant clone): 2
Fold change in EC50 relative to NL4-3, NLAY351753 ([3]; NRTI/NNRTI-resistant clone): 1
Fold change in EC50 relative to NL4-3, K103N/Y181C ([3]; NRTI/NNRTIs group, NL4-3 background): 1
Fold change in EC50 relative to NL4-3, ARP-4595 ([3]; PI-resistant virus): 1
Fold change in EC50 relative to NL4-3, ARP-4596 ([3]; PI-resistant virus): 0.5
Fold change in EC50 relative to NL4-3, ARP-11801 ([3]; PI-resistant virus): 1
Fold change in EC50 relative to NL4-3, ARP-11803 ([3]; PI-resistant virus): 1
Fold change in EC50 relative to NL4-3, ARP-11807 ([3]; PI-resistant virus): 1
Fold change in EC50 relative to NL4-3, ARP-11808 ([3]; PI-resistant virus): 1
IC50 [4]: 47 ± 14 nM
IC50 [5]: 150 ± 30 nM
Fold change in EC50 relative to parental NL4-3, AA ([6]; recombinant NL4-3, IN 124/125 AA): 1
Fold change in EC50 relative to parental NL4-3, AM ([6]; recombinant NL4-3, IN 124/125 AM): 0.4
Fold change in EC50 relative to parental NL4-3, AT ([6]; recombinant NL4-3, IN 124/125 AT): 1
Fold change in EC50 relative to parental NL4-3, AV ([6]; recombinant NL4-3, IN 124/125 AV): 2
Fold change in EC50 relative to parental NL4-3, GA ([6]; recombinant NL4-3, IN 124/125 GA): 1
Fold change in EC50 relative to parental NL4-3, GT ([6]; recombinant NL4-3, IN 124/125 GT): 1
Fold change in EC50 relative to parental NL4-3, NA ([6]; recombinant NL4-3, IN 124/125 NA): 1
Fold change in EC50 relative to parental NL4-3, NT ([6]; recombinant NL4-3, IN 124/125 NT): 1
Fold change in EC50 relative to parental NL4-3, NV ([6]; recombinant NL4-3, IN 124/125 NV): 1
Fold change in EC50 relative to parental NL4-3, SA ([6]; recombinant NL4-3, IN 124/125 SA): 1
Fold change in EC50 relative to parental NL4-3, ST ([6]; recombinant NL4-3, IN 124/125 ST): 1
Fold change in EC50 relative to parental NL4-3, TA ([6]; recombinant NL4-3, IN 124/125 TA): 1
Fold change in EC50 relative to parental NL4-3, TM ([6]; recombinant NL4-3, IN 124/125 TM): 0.3
Fold change in EC50 relative to parental NL4-3, TV ([6]; recombinant NL4-3, IN 124/125 TV): 1
safety in phase I clinical trial [7]: without any serious adverse event and few mild adverse events
Fold change in EC50 relative to parental NL4-3, CAM2BBY (CRF02) ([8]; IN 124/125 AA): 2
Fold change in EC50 relative to parental NL4-3, E0836M4 (D) ([8]; IN 124/125 AA): 1
Fold change in EC50 relative to parental NL4-3, KER2008 (A) ([8]; IN 124/125 AA): 1
Fold change in EC50 relative to parental NL4-3, NP1525 (CRF01) ([8]; IN 124/125 AA): 1
Fold change in EC50 relative to parental NL4-3, NP1695 (CRF02) ([8]; IN 124/125 AA): 2
Fold change in EC50 relative to parental NL4-3, TZA125 (C) ([8]; IN 124/125 AA): 0.4
Fold change in EC50 relative to parental NL4-3, KSM4030 (A) ([8]; IN 124/125 GA): 2
Fold change in EC50 relative to parental NL4-3, vGA (C) ([8]; IN 124/125 GA): 4
Fold change in EC50 relative to parental NL4-3, 99ET14 (C) ([8]; IN 124/125 NA): 1
Fold change in EC50 relative to parental NL4-3, NP1538 (B) ([8]; IN 124/125 NA): 2
Fold change in EC50 relative to parental NL4-3, vNA_1 (B) ([8]; IN 124/125 NA): 2
Fold change in EC50 relative to parental NL4-3, vNA_2 (CRF02) ([8]; IN 124/125 NA): 3
Fold change in EC50 relative to parental NL4-3, vNV (B) ([8]; IN 124/125 NV): 2
Fold change in EC50 relative to parental NL4-3, vSA_1 (B) ([8]; IN 124/125 SA): 3
Fold change in EC50 relative to parental NL4-3, vSA_2 (CRF02) ([8]; IN 124/125 SA): 3
Fold change in EC50 relative to parental NL4-3, vTA_1 (B) ([8]; IN 124/125 TA): 2
Fold change in EC50 relative to parental NL4-3, vTA_2 (CRF02) ([8]; IN 124/125 TA): 1
EC90 (NL4-3 HIV-1 strain; Human immunodeficiency virus 1, NL43, multiple-round infection, from dose response curves, read-out: EC90 NL4-3): 13 ± 5.1 nM
EC50 (NL4-3 HIV-1 strain; Human immunodeficiency virus 1, NL43, multiple-round infection, mean ± SD, n > 5, read-out: EC50 NL4-3): 8.7 ± 2.8 nM
Selectivity index CC50/EC50 NL4-3 (NL4-3 HIV-1 strain): 7,931
